“And” between values parts separate entries of the source, which are not always exact repeats. Equal entries are not always repeated. Where two headings read alike, the source gives them in different places. Marks after values point to notes of the source that are not given here.
Legend:
[1] = target: OPRD: opioid receptor delta (Bos taurus, UniProt F1N083); conditions: literature (Pearl, Herrick-Davis et al. 1995); cited from earlier work
calf OPRM = calf OPRM (Bos taurus, UniProt P79350); conditions: calf receptor, literature, cited from earlier work
Chain of calf OPRM (P79350 whole entry): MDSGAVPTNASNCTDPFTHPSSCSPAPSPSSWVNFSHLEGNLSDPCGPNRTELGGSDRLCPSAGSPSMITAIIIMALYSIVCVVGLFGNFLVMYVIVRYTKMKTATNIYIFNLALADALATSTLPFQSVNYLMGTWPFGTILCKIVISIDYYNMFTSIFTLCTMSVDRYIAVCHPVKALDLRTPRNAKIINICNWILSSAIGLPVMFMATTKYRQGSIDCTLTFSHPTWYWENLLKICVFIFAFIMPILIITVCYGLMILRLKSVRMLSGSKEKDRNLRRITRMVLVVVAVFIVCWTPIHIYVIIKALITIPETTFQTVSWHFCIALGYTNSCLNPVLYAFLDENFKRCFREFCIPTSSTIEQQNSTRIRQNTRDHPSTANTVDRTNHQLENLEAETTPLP

human OPRM [2] = target: T1, human OPRM (Homo sapiens, UniProt P35372); assay: biochemical; type: biochemical; set-up: expressed in transfected cells; host or cells: CHO-K1 (cell lines provided by Dr. Toll, Torrey Pines Institute)
T1 sequence (P35372 whole entry): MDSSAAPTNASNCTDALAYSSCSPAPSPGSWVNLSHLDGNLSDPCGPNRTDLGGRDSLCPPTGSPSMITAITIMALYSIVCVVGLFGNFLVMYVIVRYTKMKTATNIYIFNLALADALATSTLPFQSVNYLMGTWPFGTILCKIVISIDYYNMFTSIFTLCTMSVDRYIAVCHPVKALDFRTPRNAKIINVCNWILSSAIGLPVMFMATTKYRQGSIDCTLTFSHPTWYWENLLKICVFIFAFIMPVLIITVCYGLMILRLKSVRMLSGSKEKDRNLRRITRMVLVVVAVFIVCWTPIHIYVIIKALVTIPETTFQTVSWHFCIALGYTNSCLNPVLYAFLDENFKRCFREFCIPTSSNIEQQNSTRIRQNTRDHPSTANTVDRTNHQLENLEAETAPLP

[3] = target: T2, human OPRM (μ-opioid receptor) (Homo sapiens, UniProt P35372); assay: biochemical; type: binding; set-up: expressed in transfected cells; host or cells: CHO-K1 (cell lines provided by Dr. Toll, Torrey Pines Institute)
T2 sequence (P35372 whole entry): as above

[4] = system: human OPRK (κ-opioid receptor); assay: biochemical; type: binding
calf OPRK = calf OPRK (Bos taurus, UniProt Q2KIP6); conditions: calf receptor, literature; cited from earlier work
Chain of calf OPRK (Q2KIP6 whole entry): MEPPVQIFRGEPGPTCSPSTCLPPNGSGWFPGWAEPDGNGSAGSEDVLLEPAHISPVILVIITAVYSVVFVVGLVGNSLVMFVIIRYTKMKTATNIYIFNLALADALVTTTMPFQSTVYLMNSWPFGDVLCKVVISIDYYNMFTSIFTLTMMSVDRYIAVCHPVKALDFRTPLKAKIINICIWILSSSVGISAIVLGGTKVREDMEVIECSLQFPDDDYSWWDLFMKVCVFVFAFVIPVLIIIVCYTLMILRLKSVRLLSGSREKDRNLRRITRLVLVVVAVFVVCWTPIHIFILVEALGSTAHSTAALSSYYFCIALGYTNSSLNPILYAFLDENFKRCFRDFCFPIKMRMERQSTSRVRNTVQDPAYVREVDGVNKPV

OPRK [5] = target: T3, OPRK (Homo sapiens, UniProt P41145); assay: biochemical; set-up: purchased PerkinElmer Life Sciences (Boston, Mass.)
T3 sequence (P41145 whole entry): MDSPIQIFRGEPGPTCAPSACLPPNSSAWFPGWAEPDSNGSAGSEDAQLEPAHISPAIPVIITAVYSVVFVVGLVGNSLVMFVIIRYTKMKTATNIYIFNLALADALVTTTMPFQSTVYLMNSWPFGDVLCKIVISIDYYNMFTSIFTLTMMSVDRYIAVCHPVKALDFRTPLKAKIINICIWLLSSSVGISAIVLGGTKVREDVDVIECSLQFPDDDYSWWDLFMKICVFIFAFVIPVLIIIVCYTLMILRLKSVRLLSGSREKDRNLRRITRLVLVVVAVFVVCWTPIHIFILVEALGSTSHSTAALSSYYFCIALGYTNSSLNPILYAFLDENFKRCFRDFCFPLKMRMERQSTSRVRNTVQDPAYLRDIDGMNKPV

[6] = target: T4, human OPRK (κ-opioid receptor) (Homo sapiens, UniProt P41145); assay: biochemical; type: binding; conditions: for Ki: read-out: Ki
T4 construct: purchased PerkinElmer Life Sciences (Boston, Mass.)
T4 sequence (P41145 whole entry): as above

[7] = target: T2, human OPRM (μ-opioid receptor); conditions: cited from earlier work
human OPRM [8] = target: T1, human OPRM; set-up: expressed in transfected cells; host or cells: CHO-K1 (cell lines provided by Dr. Toll, Torrey Pines Institute); conditions: cited from earlier work
human OPRM [9] = target: T1, human OPRM; assay: cell-based; type: cell-based; set-up: host or cells: CHO-K1
[10] = Ascending single-dose pharmacokinetics of noribogaine in healthy volunteers; conditions: for Cmax / Tmax / AUC0-216 / AUC0-∞ / t1/2: fasted healthy males, mean (SD), n = 6
OPRK [11] = target: T3, OPRK; assay: cell-based; set-up: host or cells: CHO-K1; conditions: OPRK, inhibitory component; pKi-pKe
[12] = OPRK, [3H]-U69,593 binding, This work
[13] = 30 mg noribogaine single oral dose
[14] = 30 mg noribogaine single oral dose, plasma
[15] = 60 mg noribogaine single oral dose
[16] = 60 mg noribogaine single oral dose, plasma

Chain of OPRD: opioid receptor delta (F1N083 1-372): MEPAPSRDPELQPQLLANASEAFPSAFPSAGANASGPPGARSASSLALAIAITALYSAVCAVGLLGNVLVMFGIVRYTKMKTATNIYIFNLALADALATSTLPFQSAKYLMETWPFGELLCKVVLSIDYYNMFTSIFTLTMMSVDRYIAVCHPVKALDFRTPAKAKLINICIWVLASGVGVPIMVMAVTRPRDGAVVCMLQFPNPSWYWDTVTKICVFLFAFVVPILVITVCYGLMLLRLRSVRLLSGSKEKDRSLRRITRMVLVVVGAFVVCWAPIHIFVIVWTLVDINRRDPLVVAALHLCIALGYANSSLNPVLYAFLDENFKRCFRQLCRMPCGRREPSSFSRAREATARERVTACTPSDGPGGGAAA

CC[C@H]1CC2C[C@H]3c4[nH]c5ccc(OC)cc5c4CCN(C2)C13 [Ibogaine, reference compound]
Ki at OPRD [1]: N.Q.)
Ki (calf OPRM): 11 µM
pKi (calf OPRM): 5.0*
stimulation of the OPRM G-protein pathway (human OPRM [2]): failed to stimulate
Emax (human OPRM [2]; read-out: Efficacy (Emax)): -2.9%
Ki [3]: 6.92 ± 0.83 µM

C=C1CC[C@@]2(O)[C@H]3Cc4ccc(O)c5c4[C@@]2(CCN3CC2CC2)[C@H]1O5 [Nalmefene, reference compound]
Specificity ΔpKi ([4]; ΔpKi = pKi(OPRK)-pKi(OPRM)): 1.1

COCC[C@H]1CC2CN3CCc4c([nH]c5ccccc45)[C@](C(=O)OC)(C2)[C@H]13 [18-MC, 18-methoxycoronaridine]
Ki (calf OPRK): 5.1 µM
pKi (calf OPRK): 5.3*
Efficacy (Emax) (OPRK [5]): <5%
pEC50 (OPRK [5]): 4.8
pEC50, (Ke): pKe (OPRK [5]): 5.3
stimulation of [35S]GTPγS binding to OPRK (OPRK [5]): failed to stimulate
EC50 (OPRK [5]; read-out: EC50): ~16 µM
pKi [6, 12]: 5.7*
Ki [6, 12]: 1.8 µM
Ki ([6]; human OPRK, [3H]-U69,593): 1.84 ± 0.12 µM
affinity at human OPRK versus OPRM ([4]; this work): equi-affine
Ki (calf OPRM; read-out: Ki): 1.1 µM
pKi (calf OPRM): 6.0*
Efficacy (Emax) (human OPRM [2]): <5%
stimulation of the OPRM G-protein pathway (human OPRM [2]): failed to stimulate
reported selectivity at OPRM [7]: 5 ×
pKi [3]: 5.6*
Ki ([3]; read-out: Ki): 2.26 µM and 2.36 µM

NC(N)=Nc1ccc2c3c([nH]c2c1)[C@@H]1Oc2c(O)ccc4c2[C@@]12CCN(CC1CC1)[C@H](C4)[C@]2(O)C3 [6′GNTI]
Specificity ΔpKi ([4]; ΔpKi = pKi(OPRK)-pKi(OPRM)): 1.84
EC50 (human OPRM [8]; OPRM, activation, literature): > 1 µM
Efficacy (human OPRM [8]; OPRM, activation, literature): 0~ %
Ki [7]: 0.082 µM
pKi [7]: 7.1

[Met]-Enkephalin [reference compound]
Efficacy (human OPRM [9]): 100%
e-coupling (human OPRM [9]): 1.94
Specificity ΔpKi [4]: <−3
Efficacy (human OPRM [8]): ~95%
e-coupling (human OPRM [2]): 1.8

CC[C@H]1C[C@@H]2C[C@H]3c4[nH]c5ccc(OC6OC(C(=O)O)C(O)C(O)C6O)cc5c4CCN(C2)[C@@H]13 (stereo partly shown) [Noribogaine glucuronide]
Cmax [10, 13]: 1.8 (0.6) ng/ml
Tmax [10, 13]: 3.0 (0.6) hr
AUC0-216 [10, 14]: 25.7 (9.1) ng · hr/ml
AUC0-∞ [10, 14]: 25.8 (9.3) ng · hr/ml
t1/2 [10, 14]: 20.6 (4.9) hr
Cmax [10, 15]: 4.1 (1.2) ng/ml
Tmax [10, 15]: 3.8 (1.2) hr
AUC0-216 [10, 16]: 65.0 (21.5) ng · hr/ml
AUC0-∞ [10, 16]: 67.1 (21.9) ng · hr/ml
t1/2 [10, 16]: 23.1 (3.0) hr
time of peak concentrations after oral noribogaine dosing ([10]; across dose groups, healthy volunteers): 3 to 4 h
Mean half-life ([10]; across dose groups, healthy volunteers, plasma): 21 to 23 h
proportion of noribogaine glucuronide Cmax and AUC relative to noribogaine ([10]; both dose groups (30 mg, 60 mg)): 3-4%
time by which detected in all subjects ([10]; plasma, 30 mg and 60 mg noribogaine dose groups): ≤ 0.75 h

C[C@@H](NC(=O)[C@@H](N)Cc1ccc(O)cc1)C(=O)NCC(=O)N(C)[C@@H](Cc1ccccc1)C(=O)NCCO [DAMGO, [D-Ala2, NMe-Phe4, Gly-ol5]-enkephalin]
Specificity ΔpKi ([4]; ΔpKi = pKi(OPRK)-pKi(OPRM)): <−3

Oc1ccc2c3c1O[C@H]1c4[nH]c5c(c4C[C@@]4(O)[C@@H](C2)N(CC2CC2)CC[C@]314)C[C@@]1(O)[C@H]2Cc3ccc(O)c4c3[C@@]1(CCN2CC1CC1)[C@H]5O4 [NorBNI, nor-binaltorphimine, reference compound]
Specificity ΔpKi ([4]; ΔpKi = pKi(OPRK)-pKi(OPRM)): 2.0
e-coupling (OPRK [11]): 0.27

From patent publication US20150258108A1 (priority 2014, published 2015)
